These results are taken from publication PMC4409382, “Structural Analysis of the 14-3-3ζ/Chibby Interaction Involved in Wnt/β-Catenin Signaling” (PLoS ONE, 2015).

Square brackets hold non-standard residues; d marks the D form. Ends that are not written are not given here. Peptide text beside a SMILES is read from it. pS = N[C@@H](COP(=O)(O)O)C(=O)O

The target of one assay is T1, 14-3-3ζ (Homo sapiens, UniProt P63104).
T1 construct: Both full-length 14-3-3ζ and 14-3-3ζΔC12 were expressed as N-terminally His-tagged protein; His tag (TEV-cleavable) (N, cleaved yes); made in house; host or cells: Escherichia coli BL21 (DE3) pLysS
T1 sequence (P63104 1-245): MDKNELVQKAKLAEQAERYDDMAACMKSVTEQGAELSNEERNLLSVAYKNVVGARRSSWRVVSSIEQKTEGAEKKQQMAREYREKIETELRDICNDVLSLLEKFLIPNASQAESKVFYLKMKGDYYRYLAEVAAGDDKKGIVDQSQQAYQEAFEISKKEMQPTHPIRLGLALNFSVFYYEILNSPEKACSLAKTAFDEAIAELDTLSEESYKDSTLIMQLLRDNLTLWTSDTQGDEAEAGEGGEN
Description: ITC of Cby peptides titrated into 14-3-3ζ. It counts as binding. The conditions noted are these: for n (binding stoichiometry of monomeric 14-3-3 and Cby peptide): 25°C; for T∆S / ∆G / ∆H / TΔS / ΔG / ΔH: 298.15 K; for T∆S / ∆G / ∆H: duplicate set (S1 Table); for TΔS / ΔG / ΔH: pH 6.8, Table 1 set of duplicate experiments. From the text:
The human14-3-3ζ ORF purchased from GeneCopoeia was transferred into Gateway pDEST17 vector (Invitrogen). The 14-3-3ζΔC12, where the 12 C-terminal residues were deleted, was then generated from the full-length construct using QuikChange II Site-Directed Mutagenesis Kit (Strategene). Both full-length 14-3-3ζ and 14-3-3ζΔC12 were expressed as N-terminally His-tagged protein in Escherichia coli (E. coli) BL21 (DE3) pLysS in M9 medium. For unlabeled protein, protein expression was induced at an O.D.600 of 0.9 by adding 0.75 mM IPTG at 18°C for 24 h. The ^15N, ^13C, ^2H labeled 14-3-3ζΔC12 was produced by growing E. coli in deuterated M9 medium. Cells adapted to 70% D2O were used to inoculate a 1 L culture of M9 prepared in 100% D2O. Cells were grown at 37°C and overexpression was induced at an O.D.600 of 0.6 with 0.75 mM IPTG. After a 60-h induction at 18°C, the cells were harvested. All 14-3-3ζ constructs used in this study were purified from the crude lysate by affinity chromatography using Ni Sepharose Fast Flow beads (Amersham Biosciences). The tag was then cleaved by overnight incubation with His-tagged tobacco etch virus (TEV) protease at 25°C. The cleaved 14-3-3ζ, which retains an N-terminal glycine, was purified by passing the mixture through Ni Sepharose Fast Flow beads. The final yields for the 14-3-3ζ proteins were ~50 mg per L of M9 media (including deuterated media).
The Cby peptides used in this study were purchased from GenScript USA Inc. and the TUFTS University Core Facility. From GenScript USA Inc.: Cby 13-mer (NH2-^12KTPPRKSASLSNL^24-COOH), Cby S20D 13-mer (NH2-^12KTPPRKSADLSNL^24-COOH), Cby S20E 13-mer (NH2-^12KTPPRKSAELSNL^24-COOH), pCby 13-mer (NH2-^12KTPPRKSApSLSNL^24-COOH) and pCby 18-mer ((NH2-^12KTPPRKSApSLSNLHSLDR^29-COOH). From TUFTS: pCby 7-mer (Ac-^16RKSApSLS^22-NH2), pCby 11-mer (NH2-^12KTPPRKSApSLS^22-NH2), pCby S22P 7-mer (Ac-^16RKSApSLP^22-NH2), pCby S22P 13-mer (NH2-^12KTPPRKSApSLPNL^24-COOH) and pCby S22P 18-mer ([…]). Peptides were dissolved and dialyzed in 50 mM sodium phosphate, 100 mM NaCl at pH 6.8 for ITC and NMR experiments.
ITC experiments were performed on a VP-ITC instrument (MicroCal) at 25°C. The protein and peptide samples were dialyzed into a buffer containing 50 mM sodium phosphate, 100 mM NaCl, 1 mM DTT at pH 6.8 and degassed before the experiments. In a typical experiment, 5 μL aliquots of ~1–2 mM peptide were titrated stepwise into the 1.4 mL sample cell containing ~100–200 μM 14-3-3ζ. The association constant (Ka), molar binding stoichiometry (n) and the binding enthalpy (ΔH), entropy (ΔS) and Gibbs free energy (ΔG) were determined by fitting the binding isotherm to a one-site model with MicroCal Origin7 software. All ITC experiments were performed in duplicate. A duplicate set of thermodynamic derived binding parameters are found in S1 Table. Peptide and protein concentrations were determined from amino acid analysis (Amino Acid Analysis Facility, SickKids, Toronto, ON).

For assay [1], the target named is T2, 14-3-3ζ (human, full-length) (human, UniProt P63104 1-245).
T2 construct: N-terminal glycine retained after TEV cleavage of the His tag; 14-3-3ζ, human, ORF bought from GeneCopoeia, in Gateway pDEST17; full-length; Dimer in the crystal; the ITC stoichiometry counts on the 14-3-3 monomer; also called WT 14-3-3ζ; source: E. coli BL21 (DE3) pLysS, purified (Ni Sepharose, TEV cleavage, second Ni Sepharose pass); not shown: His tag, N-terminal, cleaved
T2 sequence: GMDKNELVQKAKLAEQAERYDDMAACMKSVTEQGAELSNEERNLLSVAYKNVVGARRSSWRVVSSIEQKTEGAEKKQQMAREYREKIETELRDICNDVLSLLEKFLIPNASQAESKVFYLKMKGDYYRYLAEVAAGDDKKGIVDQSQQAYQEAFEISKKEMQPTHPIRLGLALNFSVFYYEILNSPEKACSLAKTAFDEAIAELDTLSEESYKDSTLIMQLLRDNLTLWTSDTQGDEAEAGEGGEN
Nature of the assay: ITC; VP-ITC, 25°C; ~1-2 mM peptide titrated in 5 uL aliquots into ~100-200 uM 14-3-3ζ in the cell; 50 mM sodium phosphate, 100 mM NaCl, 1 mM DTT, pH 6.8; one-site model; in duplicate. The conditions noted are these: both partners purified.

Where [2] appears, read: 50 mM sodium phosphate, 100 mM NaCl, 1 mM DTT, pH 6.8, one-site model, Table 1 set of duplicate experiments.
Setting [3] is: pH 6.8, duplicate set (S1 Table).

Consider `CC(C)C[C@H](NC(=O)[C@H](COP(=O)(O)O)NC(=O)[C@H](C)NC(=O)[C@H](CO)NC(=O)[C@H](CCCCN)NC(=O)[C@H](CCCNC(=N)N)NC(=O)[C@@H]1CCCN1C(=O)[C@@H]1CCCN1C(=O)[C@@H](NC(=O)[C@@H](N)CCCCN)[C@@H](C)O)C(=O)N[C@@H](CO)C(N)=O` [Cby 11-mer] (H-KTPPRKSA[pS]LS-NH2), for which, at 14-3-3ζ, the “greater affinity compared to the Cby 7-mer (fold, in words)” value is given as “more than two-fold”; the “T∆S” value is on record as 3.22 kcal/mol; the “∆G” value is reported as -6.49 ± 0.02 kcal/mol; the “∆H” value is on record as -3.27 ± 0.02 kcal/mol. Besides, on 14-3-3ζ, the TΔS came to 3.23 kcal/mol, the ΔG is reported as -6.49 ± 0.02 kcal/mol and the ΔH is reported as -3.26 ± 0.02 kcal/mol. This molecule gave a Kd at 14-3-3ζ (25°C (298.15 K), 50 mM sodium phosphate, 100 mM NaCl, 1 mM DTT, pH 6.8, one-site model, Table 1 set of duplicate experiments) of 17.5 ± 0.6 µM. For the same molecule, the “n (binding stoichiometry of monomeric 14-3-3 and Cby peptide)” value at 14-3-3ζ (setting [2]) worked out at 0.95. In addition, at 14-3-3ζ (setting [3]), the “n (binding stoichiometry of monomeric 14-3-3 and Cby peptide)” value was 0.96.
Consider `CC(=O)N[C@@H](CCCNC(=N)N)C(=O)N[C@@H](CCCCN)C(=O)N[C@@H](CO)C(=O)N[C@@H](C)C(=O)N[C@@H](COP(=O)(O)O)C(=O)N[C@@H](CC(C)C)C(=O)N1CCC[C@H]1C(N)=O` [Cby 7-mer S22P] (Ac-RKSA[pS]LP-NH2), for which, at 14-3-3ζ (setting [2]), the “n (binding stoichiometry of monomeric 14-3-3 and Cby peptide)” value turned out to be 1.03. For the same molecule, on 14-3-3ζ (setting [3]), the “n (binding stoichiometry of monomeric 14-3-3 and Cby peptide)” value came out at 1.02. Moreover, at 14-3-3ζ, the “T∆S” value is recorded as 1.29 kcal/mol, the “∆G” value is listed as -7.50 ± 0.02 kcal/mol, the “∆H” value is -6.21 ± 0.02 kcal/mol and the TΔS stood at 1.39 kcal/mol. On 14-3-3ζ, this molecule had a ΔG of -7.55 ± 0.01 kcal/mol and a ΔH of -6.16 ± 0.01 kcal/mol.
With `CC(C)C[C@H](NC(=O)[C@H](CC(N)=O)NC(=O)[C@@H]1CCCN1C(=O)[C@H](CC(C)C)NC(=O)[C@H](COP(=O)(O)O)NC(=O)[C@H](C)NC(=O)[C@H](CO)NC(=O)[C@H](CCCCN)NC(=O)[C@H](CCCNC(=N)N)NC(=O)[C@@H]1CCCN1C(=O)[C@@H]1CCCN1C(=O)[C@@H](NC(=O)[C@@H](N)CCCCN)[C@@H](C)O)C(=O)O` [Cby 13-mer S22P] (H-KTPPRKSA[pS]LPNL-OH), at 14-3-3ζ (setting [2]), the “n (binding stoichiometry of monomeric 14-3-3 and Cby peptide)” value came to 1.06. Moreover, at 14-3-3ζ (setting [3]), the “n (binding stoichiometry of monomeric 14-3-3 and Cby peptide)” value turned out to be 1.02. For the same molecule, at 14-3-3ζ, the “T∆S” value is listed as 3.33 kcal/mol, the “∆G” value was -8.03 ± 0.02 kcal/mol, the “∆H” value is recorded as -4.70 ± 0.01 kcal/mol and the TΔS is listed as 3.49 kcal/mol. For the same molecule, on 14-3-3ζ, the ΔG was -8.13 ± 0.02 kcal/mol and the ΔH is given as -4.64 ± 0.01 kcal/mol.
`CC(=O)N[C@@H](CCCNC(=N)N)C(=O)N[C@@H](CCCCN)C(=O)N[C@@H](CO)C(=O)N[C@@H](C)C(=O)N[C@@H](COP(=O)(O)O)C(=O)N[C@@H](CC(C)C)C(=O)N[C@@H](CO)C(N)=O` [Cby 7-mer] (Ac-RKSA[pS]LS-NH2): the “n (binding stoichiometry of monomeric 14-3-3 and Cby peptide)” value on 14-3-3ζ (setting [2]) is reported as 1.01. Further, the “n (binding stoichiometry of monomeric 14-3-3 and Cby peptide)” value on 14-3-3ζ (setting [3]) was 0.94. Further, on 14-3-3ζ, the “T∆S” value was 2.20 kcal/mol, the “∆G” value is -5.90 ± 0.02 kcal/mol, the “∆H” value is -3.70 ± 0.04 kcal/mol and the TΔS was determined as 2.60 kcal/mol. Also, at 14-3-3ζ, the ΔG was -5.95 ± 0.03 kcal/mol and the ΔH is on record as -3.35 ± 0.06 kcal/mol.

B1: pCby S22P 13-mer (peptide)
peptide: KTPPRKSA[pS]LPNL
notes: Chibby (Cby), human, residues 12-24 with S22P; free NH2 and COOH ends; also called Cby 13-mer S22P; source: synthetic peptide, bought: TUFTS University Core Facility
As to B1, in assay [1], binding was characterised by a dissociation constant (Kd) of 1.1 µM, the dH was -4.64 ± 0.01 kcal/mol and the “stoichiometry N” value was 1.06.

B2: pCby 11-mer (peptide)
peptide: KTPPRKSA[pS]LS-NH2
modifications: N-terminus assumed
SMILES: CC(C)C[C@H](NC(=O)[C@H](COP(=O)(O)O)NC(=O)[C@H](C)NC(=O)[C@H](CO)NC(=O)[C@H](CCCCN)NC(=O)[C@H](CCCNC(=N)N)NC(=O)[C@@H]1CCCN1C(=O)[C@@H]1CCCN1C(=O)[C@@H](NC(=O)[C@@H](N)CCCCN)[C@@H](C)O)C(=O)N[C@@H](CO)C(N)=O
notes: Chibby (Cby), human, residues 12-22; free NH2 end; source: synthetic peptide, bought: TUFTS University Core Facility
For the molecule B2, in assay [1], the Kd amounted to 17.5 µM, the dH is -3.26 ± 0.02 kcal/mol and the “stoichiometry N” value is 0.95.

B3: Cby 18-mer L24A (phosphorylated) (peptide)
peptide: KTPPRKSA[pS]LSNAHSLDR
notes: Chibby (Cby), human, residues 12-29 with L24A; Not in the methods' list of peptides; also called Cby L24A 18-mer; source: synthetic peptide
On to B3, for which, in assay [1], the Kd was found to be 21.3 µM, the dH is -1.56 ± 0.05 kcal/mol and the “stoichiometry N” value is 0.99.

B4: pCby 7-mer (peptide)
peptide: Ac-RKSA[pS]LS-NH2
SMILES: CC(=O)N[C@@H](CCCNC(=N)N)C(=O)N[C@@H](CCCCN)C(=O)N[C@@H](CO)C(=O)N[C@@H](C)C(=O)N[C@@H](COP(=O)(O)O)C(=O)N[C@@H](CC(C)C)C(=O)N[C@@H](CO)C(N)=O
notes: also called 16RKSA(pS)LS22; pCby WT 7-mer; source: synthetic peptide, bought: TUFTS University Core Facility
For the molecule B4, in assay [1], the Kd was 43.5 µM, the dH was -3.35 ± 0.06 kcal/mol and the “stoichiometry N” value was 1.01.

B5: pCby S22P 7-mer (peptide)
peptide: Ac-RKSA[pS]LP-NH2
SMILES: CC(=O)N[C@@H](CCCNC(=N)N)C(=O)N[C@@H](CCCCN)C(=O)N[C@@H](CO)C(=O)N[C@@H](C)C(=O)N[C@@H](COP(=O)(O)O)C(=O)N[C@@H](CC(C)C)C(=O)N1CCC[C@H]1C(N)=O
notes: Chibby (Cby), human, residues 16-22 with S22P; also called Cby 7-mer S22P; 16RKSA(pS)LP22; source: synthetic peptide, bought: TUFTS University Core Facility
Take B5: in assay [1], the Kd is 2.9 µM, the dH is -6.16 ± 0.01 kcal/mol and the “stoichiometry N” value is 1.03.

The term Kd denotes the constant that tells how readily two partners part at equilibrium. A higher Kd goes with weaker binding. A word on the stoichiometry N: it is a count of units in the complex or per binding partner.
